According to article PMC8000041, “New Insights into the Metabolism of the Flavanones Eriocitrin and Hesperidin: A Comparative Human Pharmacokinetic Study” (Antioxidants, 2021):
Like-named read-outs stand apart in the source and are kept apart here.

Assays:
[1] = Urinary excretion of flavanone-derived metabolites after single intake of lemon or orange extract (UPLC-ESI-QTOF-MS); type: in vivo, human; details: for Urinary excretion F1: urine fraction 0-4 h; for Urinary excretion F1 / Urinary excretion F2 / Urinary excretion F3 / Urinary excretion F4 / Urinary excretion Total F: mean ± SD; for Urinary excretion F2: urine fraction 4-8 h; for Urinary excretion F3: urine fraction 8-10 h; for Urinary excretion F4: urine fraction 10-24 h; for Urinary excretion Total F: sum of fractions F1-F4 (24 h); for Occurrence Urine LE (number of volunteers in whom the metabolite was detected): after consuming lemon extract; for Occurrence Urine LE (number of volunteers in whom the metabolite was detected) / Occurrence Urine OE (number of volunteers in whom the metabolite was detected): n = 16 volunteers; for Occurrence Urine OE (number of volunteers in whom the metabolite was detected): after consuming orange extract
Excerpt: Secondary endpoints involved the evaluation of post-prandial changes in several biomarkers dealing with metabolism, inflammation, and oxidative stress after a high-fat-high-sugars meal. The design was a randomized pharmacokinetic, double-blind, crossover, single-dose trial consisted of 2 test-phases. The volunteers were randomly allocated into two groups using a computerized random number list. Each group consumed one of the citrus extracts by following a test-phase that lasted for 1 day for blood sampling and urine collection, a 2-week washout period between each test phase, and crossover before consuming the other extract. The volunteers were instructed to avoid the consumption of flavanone-containing products, from a list provided by the researchers, for 1 week before the study and during the wash-out phase (citrus fruit juices, tomatoes, tomato-based sauces (like ‘ketchup’), peppers, almonds, etc.). […] The 3 capsules provided a total of 1.95 g orange extract, containing 260 mg hesperidin, and 3.1 g lemon extract, containing 260 mg eriocitrin. […] Untreated urine samples were aliquoted and frozen at −80 °C for up to 4 weeks until analyses, avoiding freeze-thaw cycles to avoid metabolites’ deconjugation. Moreover, three measurements of blood pressure and heart rate were taken before each time-point of blood withdrawal. […] A previously validated method for analyzing phenolic metabolites in biological samples, including flavanone-derived metabolites, was used. […] After centrifugation at 14,000× g for 10 min at 4 °C, the supernatant was evaporated in a speed vacuum concentrator. Finally, samples were re-suspended in 100 µL of methanol, filtered through a 0.22 µm cellulose filters before analysis by UPLC- ESI-QTOF-MS. […] A targeted screening strategy was applied to identify metabolites that could be present after consuming the citrus extracts. Twenty-eight possible compounds were browsed in all the samples. The list of compounds included the polyphenols present in the extracts, with particular focus on the flavanone rutinosides hesperidin and eriocitrin, their respective aglycones hesperetin, and eriodictyol, as well as their derived phase-II conjugates (glucuronides, sulfates, sulfoglucuronides, etc.). The exact mass of each proposed compound was extracted using an extraction window of 0.01 m/z. The metabolites hesperetin 7-O-glucuronide, hesperetin 3′-O-glucuronide, hesperetin 3-O-sulfate, naringenin 4′-O-glucuronide, and naringenin 7′-O-glucuronide were quantified with their corresponding standards. […] The parent phenolic compounds were quantified with their corresponding standards. In the case of some relevant conjugated metabolites, which standards were not available (eriodictyol and homoeriodictyol conjugates), their quantification was achieved by using relative response factors (RRFs) as previously described. Briefly, RRFs are useful to check the different responses of metabolites in the mass spectrometer vs. their UV signal. While the ionization response of free vs. conjugated forms is usually very different, their UV signal response is quite similar. To this purpose, we injected in a HPLC-DAD-ESI-Q (MS) the plasma samples (n = 5) with the highest concentrations of those conjugated metabolites. Concentrations were calculated by integrating the area from their corresponding UV peaks and compared with the UV peak area of a known concentration of their corresponding available parent compounds (eriodictyol and homoeriodictyol). The concentrations calculated were used to compare the MS response for each conjugated-aglycone pair.

[2] = Plasma metabolites and pharmacokinetics after single intake of lemon or orange extract (UPLC-ESI-QTOF-MS, non-compartmental analysis); type: in vivo, human; details: for Occurrence Plasma LE (number of volunteers in whom the metabolite was detected): after consuming lemon extract; for Occurrence Plasma LE (number of volunteers in whom the metabolite was detected) / Occurrence Plasma OE (number of volunteers in whom the metabolite was detected): n = 16 volunteers; for Occurrence Plasma OE (number of volunteers in whom the metabolite was detected): after consuming orange extract; for Tmax / Cmax / AUC(0-t): mean ± SD
Excerpt: Secondary endpoints involved the evaluation of post-prandial changes in several biomarkers dealing with metabolism, inflammation, and oxidative stress after a high-fat-high-sugars meal. The design was a randomized pharmacokinetic, double-blind, crossover, single-dose trial consisted of 2 test-phases. The volunteers were randomly allocated into two groups using a computerized random number list. Each group consumed one of the citrus extracts by following a test-phase that lasted for 1 day for blood sampling and urine collection, a 2-week washout period between each test phase, and crossover before consuming the other extract. The volunteers were instructed to avoid the consumption of flavanone-containing products, from a list provided by the researchers, for 1 week before the study and during the wash-out phase (citrus fruit juices, tomatoes, tomato-based sauces (like ‘ketchup’), peppers, almonds, etc.). […] The 3 capsules provided a total of 1.95 g orange extract, containing 260 mg hesperidin, and 3.1 g lemon extract, containing 260 mg eriocitrin. […] Plasma samples were obtained by centrifugation of peripheral venous blood at 14,000× g for 15 min at 4 °C and immediately frozen at −80 °C. Glucose, total cholesterol, HDL-cholesterol, LDL-cholesterol, triglycerides, insulin, homeostatic model assessment insulin resistance (HOMA-IR), gamma-glutamyl transferase (GGT), and alanine aminotransferase (ALT) were determined as previously reported. […] A previously validated method for analyzing phenolic metabolites in biological samples, including flavanone-derived metabolites, was used. […] After centrifugation at 14,000× g for 10 min at 4 °C, the supernatant was evaporated in a speed vacuum concentrator. Finally, samples were re-suspended in 100 µL of methanol, filtered through a 0.22 µm cellulose filters before analysis by UPLC- ESI-QTOF-MS. A targeted screening strategy was applied to identify metabolites that could be present after consuming the citrus extracts. Twenty-eight possible compounds were browsed in all the samples. The list of compounds included the polyphenols present in the extracts, with particular focus on the flavanone rutinosides hesperidin and eriocitrin, their respective aglycones hesperetin, and eriodictyol, as well as their derived phase-II conjugates (glucuronides, sulfates, sulfoglucuronides, etc.). The exact mass of each proposed compound was extracted using an extraction window of 0.01 m/z. The metabolites hesperetin 7-O-glucuronide, hesperetin 3′-O-glucuronide, hesperetin 3-O-sulfate, naringenin 4′-O-glucuronide, and naringenin 7′-O-glucuronide were quantified with their corresponding standards. […] The parent phenolic compounds were quantified with their corresponding standards. In the case of some relevant conjugated metabolites, which standards were not available (eriodictyol and homoeriodictyol conjugates), their quantification was achieved by using relative response factors (RRFs) as previously described. Briefly, RRFs are useful to check the different responses of metabolites in the mass spectrometer vs. their UV signal. While the ionization response of free vs. conjugated forms is usually very different, their UV signal response is quite similar. To this purpose, we injected in a HPLC-DAD-ESI-Q (MS) the plasma samples (n = 5) with the highest concentrations of those conjugated metabolites. Concentrations were calculated by integrating the area from their corresponding UV peaks and compared with the UV peak area of a known concentration of their corresponding available parent compounds (eriodictyol and homoeriodictyol). The concentrations calculated were used to compare the MS response for each conjugated-aglycone pair. Statistical analyses were carried out using the SPSS Software, version 23.0 (SPSS Inc., Chicago, IL, USA). Data are expressed as mean ± SD. The empirical distribution of data with the normality assumption was tested with the Shapiro-Wilk test. […]

[3] = lemon extract (3.1 g, 260 mg eriocitrin)
[4] = orange extract (1.95 g, 260 mg hesperidin)

Molecule	Urinary excretion F1 [1, 3]	Urinary excretion F2 ([1]; lemon extract)	Urinary excretion F3 ([1]; lemon extract)	Urinary excretion F4 ([1]; lemon extract)	Urinary excretion F1 [1, 4]	Urinary excretion Total F ([1]; orange extract)	Urinary excretion F2 ([1]; orange extract)	Urinary excretion F3 ([1]; orange extract)	Urinary excretion F4 ([1]; orange extract)	Occurrence Urine LE (number of volunteers in whom the metabolite was detected) [1]	Occurrence Urine OE (number of volunteers in whom the metabolite was detected) [1]	Occurrence Plasma LE (number of volunteers in whom the metabolite was detected) [2]	Occurrence Plasma OE (number of volunteers in whom the metabolite was detected) [2]	also measured
COc1ccc(C2CC(=O)c3c(O)cc(O)cc3O2)cc1OS(=O)(=O)O (stereo not drawn) [M14, Hesperetin 3′-O-sulfate]	1.9 ± 2.6 µg/mg creatinine	4.3 ± 4.5 µg/mg creatinine	3.3 ± 3.1 µg/mg creatinine	0.7 ± 0.6 µg/mg creatinine	0.1 ± 0.3 µg/mg creatinine	3.8 ± 7.3 µg/mg creatinine	1.2 ± 3.3 µg/mg creatinine	1.9 ± 3.1 µg/mg creatinine	0.6 ± 0.6 µg/mg creatinine	16	16	16	16	Urinary excretion after lemon extract vs. orange extract ([1]; ratio lemon / orange extract intake): around 2 fold; Tmax ([2]; after orange (hesperidin) extract): 8.4 ± 1.5 h; Cmax ([2]; human, oral, 1.95 g, after orange (hesperidin) extract): 178 ± 286 nM; AUC(0-t) ([2]; human, oral, 1.95 g, after orange (hesperidin) extract, read-out: AUC0-t): 0.635 ± 1.17 µM·h; Tmax ([2]; human, oral, 1.95 g, after orange (hesperidin) extract, read-out: Tmax): 8.5 h; Cmax ([2]; human, oral, 3.1 g, after lemon extract): 527 ± 358 nM; AUC(0-t) ([2]; human, oral, 3.1 g, after lemon extract, read-out: AUC0-t): 2.04 ± 1.81 µM·h; Tmax ([2]; human, oral, 3.1 g, after lemon extract, read-out: Tmax): 6.5 ± 1.9 h
O=C1C[C@@H](c2ccc(O)cc2)Oc2cc(O)cc(O)c21 [M15, Naringenin]										9	5	6	2	
COc1cc([C@@H]2CC(=O)c3c(O)cc(O)cc3O2)ccc1O [M16, Homoeriodictyol]										12	1	15	1	
COc1ccc([C@@H]2CC(=O)c3c(O)cc(O)cc3O2)cc1O [M17, Hesperetin]										5	8	8	3	
Eriodictyol sulfate [M13]	4.6 ± 5.0 µg/mg creatinine	14.6 ± 17.3 µg/mg creatinine	11.9 ± 12.6 µg/mg creatinine	1.5 ± 1.5 µg/mg creatinine	0.02 ± 0.01 µg/mg creatinine	0.6 ± 0.9 µg/mg creatinine	0.1 ± 0.1 µg/mg creatinine	0.2 ± 0.4 µg/mg creatinine	0.3 ± 0.4 µg/mg creatinine	16	12	16	10	Urinary excretion Total F ([1]; lemon extract): 32.6 ± 36.5 µg/mg creatinine; AUC(0-t) ([2]; after lemon extract): 6.12 ± 6.631 µM·h; Cmax ([2]; after lemon extract): 1710 ± 1510 nM; Tmax ([2]; after lemon extract): 5.7 ± 2.5 h
Eriodictyol sulfoglucuronide [M9]										5	0	15	0	
